Results from patent US20020013264A1, “Neoglycan anticancer agents and uses thereof” (priority 1999, published 2002).

How the values were obtained:
[1] = test system: ARP-1 multiple myeloma cell line; assay: MTT cell viability assay, ARP-1 cells; type: cell-based, human; conditions: 500 μg/ml (FIG. 1 legend), 72 hours
Source text: ARK, ARP-1, and CAG cells are B lymphoid cell lines established at the Arkansas Cancer Research Center from bone marrow aspirates of multiple myeloma patients (Ridley, Xiao et al. 1993). U266 is a multiple myeloma cell line that was obtained from the American Type Culture Collection (ATCC, Manassas, Va.). ARH-77 cells (ATCC, Manassas, Va.) were established from the peripheral blood of a patient with plasma cell leukemia (Burk, Drewinko et al. 1978). Peripheral blood mononuclear cells (PBMCs) were collected from healthy donors by Ficol-Hypaque separation of whole blood and were mitogen activated for 3 days with 2.5 μg/ml PHA (Sigma, St Louis, Mo.) prior to neoglycan treatment. The cell lines and peripheral blood mononuclear cells were grown in RPMI 1640 supplemented with 10% fetal bovine serum, 2 mM L-glutamine, 1 00 U/ml penicillin and 100 μg/ml streptomycin sulfate. […]
Cells were plated in the appropriate media on 96-well plates in a 100 μl total volume. […] Cell viability was determined based mitochondrial conversion of 3[4,5-Dimethylthiazol-2-yl]-2,5-diphenyltetrazolium bromide (MTT, Sigma, St Louis, Mo.) to formazan. […] The plates were gently agitated until the color reaction was uniform and the OD540 was determined using a microplate reader. […]

ARP-1 cells = assay: Apoptosis by Annexin V-FITC staining and PI exclusion, ARP-1; type: cell-based, human; conditions: discussion summary of Annexin V and TUNEL results
Description: (§1) ARP-1 cells and MDA-MB-231 cells were treated with media only, 32 μg/ml GAG chains and 32 μg/ml neoglycans. The ARP-1 cells were harvested following a 48 hour incubation period and the MDA-MB-231 cells were harvested after a 96 hour incubation period. The induction of apoptosis was determined by staining with fluorescein isothiocyanated-labeled Annexin V (Annexin V-FITC, CALTAG Laboratories, Burlingame, Calif.) following the manufacturer's instructions. Just prior to analysis, 0.5 mg/ml propidium iodide (PI, Sigma, St Louis, Mo.) in PBS, pH. 7.4 was added. Flow cytometry was performed with a Beckman Dickenson (Mountain View, Calif.) FACScan using Cellquest 1.2 software. Annexin V-FITC positive, PI negative cells were considered apoptotic.
(§2) Annexin-V binds to phosphatidylserine which is on the inner cytoplasmic membrane of healthy cells and on the outer cytoplasmic membrane of apoptotic cells .

MDA-MB-231 cells = assay: Apoptosis by Annexin V-FITC staining and PI exclusion, MDA-MB-231; type: cell-based, human; conditions: discussion summary of Annexin V and TUNEL results
Description: as §1, §2

[2] = test system: MDA-MB-231 breast cancer tumors; assay: Treatment of established MDA-MB-231 tumors in nude mice; type: in vivo; conditions: single 1.6 mg dose injected into the tumor followed by electroporation
Description: BALB/c nu/nu mice were anesthetized by intraperitoneal administration of a mixture of ketamine (42.8 mg/ml), xylazine (8.6 mg/ml), and acepromazine (1.4 mg/ml) at a dose of 1.8-2.0 ml/kg. Human breast cancer tumors were established following subcutaneous injection of 2×10^6 MDA-MB-231 cells in PBS. Two tumors were established on each mouse. Tumors were injected with a single 1.6 mg dose of chondroitin sulfate or chondroitin sulfate neoglycan in a 50 μl total volume. Immediately following injection, a caliper electrode was positioned on t wo sides of the tumor with contact on the skin. An electrical pulse was applied to the tumor through the electrodes with a BTS EC830 power supply (Genetronics, Inc., San Diego, Calif.). The tumors were measured with calipers and tumor volumes calculated according to the equation: V=(L×W2)×0.5. The results reflect two separate experiments in which one tumor was treated with chondroitin sulfate and the second tumor on the same animal was treated with neoCS. Both experiments included 7 tumors per treatment group.
Therefore, chondroitin sulfate neoglycan was used for evaluation of in vivo neoglycan activity. […] Two tumors per animal developed and were measured just prior to treatment. […] The size of each tumor was determined 48 hours later and at several subsequent time points.

[3] = test system: multiple myeloma cell line; assay: Viability of a multiple myeloma cell line treated with nPG, EDAC modified GAG chains or native GAG chains; type: cell-based; conditions: data not shown
Source text: Synthetic proteoglycans termed neoproteoglycans (nPG), were produced by EDAC conjugation of the GAG chains heparin or chondroitin sulfate and a protein scaffold. Treatment of a multiple myeloma cell line with either nPG preparation or controls produced by EDAC modification of GAG chains alone reduced cell viability (data not shown). […] Therefore, neoglycans (neoglycans) consisting of EDAC modified heparin (neoheparin) or chondroitin sulfate (neoCS, neoCS) were produced and evaluated for potential anticancer activities.

| Substance | effect of native GAG chains on cell proliferation [1] | induction of apoptosis in ARP-1 cell line (FIG. 2) (ARP-1 cells) | induction of apoptosis in MDA-MB-231 cell line (FIG. 2) (MDA-MB-231 cells) | effect on established MDA-MB-231 tumors / tumor burden [2] | effect on multiple myeloma cell viability / growth [3] |
| --- | --- | --- | --- | --- | --- |
| chondroitin sulfate | no affect | do not induce apoptosis | do not induce apoptosis | does not reduce the tumor burden | no growth reducing affect |
| heparin | slightly enhances cell proliferation | do not induce apoptosis | do not induce apoptosis |  | no growth reducing affect |
